Test results as given in US20120128646A1, “METHODS AND COMPOSITIONS FOR THE TREATMENT OF AUTOIMMUNE DISEASE” (priority 2009, published 2012).
Entries after “also recorded” stand apart in the source; their conditions may differ.

Legend:
T cell clone BDC-10.1 = assay: IFNγ production by T cell clone in antigen assay (ELISA); assay type: cell-based, NOD mouse; settings: for Stimulation of T cell clone BDC-10.1 (IFNγ response), result in words: peptide or preparation as antigen
Excerpt: (§1) The T cell clones are maintained in culture by periodic re-stimulation with irradiated NOD splenocytes and islet cells or β-membrane. To assay for antigen, resting responder T cells (i.e., for example, the cells at the end of the two-week restimulation period) are co-cultured for 24 hr with elicited peritoneal macrophages (PEC) as APC and either a test sample or control antigen. Control antigen will be in the form of islet cells or the whole-cell membrane fraction (i.e., for example, a β-membrane fraction). As described above, unlysed β-membrane is stored in aliquots at −80° C. for this purpose. Negative controls include responder cells alone and responders plus APC.
(§2) At the end of the culture period, supernatants are collected from the cultures and IFNγ production is measured by ELISA. Wells positive for IFNγ are indicative of T cells responding to antigen; the amount of cytokine produced is calculated from a standard curve and is directly proportional to the amount of antigen present.
(§3) Antigenicity of islet cells, cellular and biochemical fractions, peptides, or insect cells expressing IA^g7-peptide constructs, was assessed through responses of T cell clones or hybridomas made by fusing T cell clones to the TCR^− version of T cell lymphoma, BW5147. White et al., “Two better cell lines for making hybridomas expressing specific T cell receptors” J Immunol 143:1822-1825 (1989). T cell clone cultures typically contained 2×10^4 responder T cells, 2.5×10^4 NOD peritoneal exudate cells (PEC) as APC, and antigen (SEC/IEX fractions, peptides, islet cells); all assays were performed with β-Mem as a positive control. IFNγ was measured by ELISA of culture supernatants. For cultures with T cell hybridomas, antigen/MHC activation was assessed by IL-2 production measured by a bioassay using the HT-2 T cell line. Walker et al., “Antigenspecific. I region-restricted interactions in vitro between tumor cell lines and T cell hybridomas” J Immunol 128:2164-2169 (1982). Synthetic peptides were either produced in the Molecular Resource Center at National Jewish Health or obtained from CHI Scientific, Maynard, Mass.

T cell clone BDC-2.5 = assay: as above; assay type: cell-based, NOD mouse; settings: for Stimulation of T cell clone BDC-2.5 (IFNγ response), result in words: peptide or preparation as antigen
Excerpt: as §1, §2, §3

T cell clone BDC-5.10.3 = assay: as above; assay type: cell-based, NOD mouse; settings: for Stimulation of T cell clone BDC-5.10.3 (IFNγ response), result in words: peptide or preparation as antigen
Excerpt: as §1, §2, §3

T cell clone PD-12.4.4 = assay: IFNγ production by insulin-reactive control T cell clone (ELISA); assay type: cell-based, NOD mouse; settings: negative control clone
Excerpt: as §1, §2
Antigenicity of islet cells, cellular and biochemical fractions, peptides, or insect cells expressing IA^g7-peptide constructs, was assessed through responses of T cell clones or hybridomas made by fusing T cell clones to the TCR^− version of T cell lymphoma, BW5147. […] IFNγ was measured by ELISA of culture supernatants. […]

[1] = tested on: BDC-10.1 T cell hybridoma; assay: IL-2 production by T cell hybridoma stimulated with ICAM/B7 insect cells displaying IA^g7-peptide; assay type: cell-based, mouse; settings: covalent IA^g7-peptide complex on B7/ICAM insect cells; 24 hrs
Description: (§4) FIG. 13C: Three BDC T cell hybridomas stimulated in culture either with: i) immobilized H597 anti-TCR Cβ Mab; ii) ICAM/B7 expressing SF9 cells infected with virus encoding IA^g7 with a HEL peptide; or ii) ICAM/B7 expressing SF9 cells infected with virus encoding IA^g7 with pS3. IL-2 production was assayed after 24 hrs.
(§5) T cell hybridomas bearing TCR from either the BCD-2.5, BDC-10.1 or BDC-5.10.3 T cell clones were tested for their ability to recognize the covalent IA^g7-p53 complex using B7/ICAM-expressing insect cells as artificial APCs. See, FIG. 13C; Crawford et al., “Mimotopes for alloreactive and conventional T cells in a peptide-MHC display library” PloS Biol 2:E90 (2004); and Crawford et al., “Use of baculovirus MHC/peptide display libraries to characterize T-cell receptor ligands” Immunol Rev 210: 156-170 (2006).
as §3

BDC-2.5 T cell hybridoma = assay: as above; assay type: cell-based, mouse; settings: covalent IA^g7-peptide complex on B7/ICAM insect cells; 24 hrs
Description: as §4, §5, §3

[2] = tested on: BDC-5.10.3 T cell hybridoma; assay: as above; assay type: cell-based, mouse; settings: covalent IA^g7-peptide complex on B7/ICAM insect cells; 24 hrs
Description: as §4, §5, §3

soluble IA^g7 = assay: Peptide binding to IA^g7: competition with biotinylated HEL peptide; parameters: species or system NOD mouse; settings: competition with biotinylated pHEL 11 μM, pH 5.6, overnight
Excerpt: FIG. 15B: A series of ChgA peptides tested for their ability to compete with a biotinylated HEL peptide for binding to soluble IA^g7. pS3-positive control peptide. IE^k moth cytochrome c-negative control peptide. N=2. Y axis: Percent of IA^g7-bound biotinylated HEL peptide as compared to IE^k. X axis: Log concentration of inhibitor peptide.
In order to confirm the unique binding register of the WE14 peptide, a series of peptides comprising N-terminal extensions and/or C-terminal deletions of WE14 were evaluated for their ability to stimulate the BDC-2.5 T cell clone (FIG. 6a) or to bind to IA^g7. See, FIG. 15A. […] See, FIG. 15B. Further, a pS3 mimotope was used as the positive control peptide and an irrelevant peptide from moth cytochrome c, pMCC, was the negative control peptide. The data were analyzed to determine the stimulatory or binding capacity of the peptides relative to WE14. See, FIG. 15C.
Soluble IA^g7 with covalently attached pHEL was treated with thrombin to cleave the linker attaching the peptide to the IA^g7 β chain. Kozono et al., “Production of soluble MHC class II proteins with covalently bound single peptides” Nature 369:151-154 (1994). Samples (0.5 μg) were incubated with a soluble biotinylated version of pHEL, Biotin-GGGMKRHGLDNYRGYSL (SEQ ID NO: 56) (11 μM), either alone or in the presence of various concentrations of potential competitors peptides, in 15 μL of pH 5.6 buffer overnight at room temperature. The sample was diluted to 100 μL of PBS in a well of a 96-well ELISA plate coated with an anti-IA^g7 monoclonal antibody, OX-6 (BD Pharmaceuticals). The captured IA^g7 was washed several times with PBS and the bound bio-pHEL detected with alkaline phosphatase coupled Extravadin (Sigma) and […].

BDC-2.5 TCR = assay: Binding of fluorescent multimeric soluble BDC-2.5 TCR to IA^g7-peptide on insect cells (flow cytometry); parameters: species or system mouse; settings: oligomerized
Excerpt: FIG. 13B: Use of a fluorescent, oligomerized, soluble BDC-2.5 TCR to enrich from the library a virus encoding an IA^g7-mimotope (i.e., for example, pS3) that forms a strong ligand with a BDC-2.5 TCR.
The amino acids at p1, p2, p3, p5, p7 and p8 were fully randomized to all 20 amino acids. See, FIG. 13A. Insect cells were infected with the library at a multiplicity of infection of <1 such that most infected cells expressed a single member of the library. The few infected cells expressing an IA^g7-peptide combination capable of binding a fluorescent, soluble, multimeric version of BDC-2.5 TCR were isolated using flow cytometry. See, FIG. 13B, panel 1). These cells were used to create a new enriched viral stock. […]
The PCR DNA fragment encoding the library was cloned directly into baculovirus DNA already encoding the IA^g7 genes, attached via a linker to the N-terminus of the β chain. […] Insect cells infected with the library at a multiplicity of infection of <1 were analyzed by flow cytometry for cells that expressed IA^g7 (OX-6 Mab, BD-Pharmingen) and also bound a multivalent TCR reagent consisting of the soluble BDC-2.5 TCR captured by a biotinylated anti-Cα Mab, ADO-304, bound to Alexafluor-647 labeled streptavidin (Molecular Probes). […] The peptide sequence encoded in the positive clones was determined.

diabetogenic T cells = assay: Immunization of BDC-2.5 TCR-Tg NOD mice with WE14; spleen cell IFNγ ELISA; assay type: in vivo; settings: WE14 50 mg in CFA day 0, boost in IFA day 7; spleen cells day 14, WE14 100 mg or 200 mg as antigen
Description: In one experiment, BDC-2.5 TCR-Tg NOD mice were immunized with WE14 ([…]) in complete Freund's adjuvant (CFA) at day 0 and boosted with WE14 in incomplete Freund's adjuvant (IFA) at day 7. Spleen cells were harvested 14 days after the initial immunization and assayed by ELISA with WE14 (100 mg or 200 mg) as antigen. […] See, FIG. 16.

CD4+ and CD8+ T cells = assay: Immunization of NOD mice with WE14; intracellular IFNγ of pLN and spleen T cells by flow cytometry; assay type: in vivo; settings: WE14 100 mg + IFA i.p. day 0, boost day 30; pLN and spleen at seven weeks
Description: In another experiment, NOD mice (3-4 wks old) were immunized intraperitoneally (i.p.) with WE14 (100 mg+IFA) at day 0 and boosted with the same dose of peptide 30 days later. Seven weeks after the initial immunization, pancreatic lymph nodes (pLN) and spleen were harvested and single cell suspensions of these organs were made. The cells were stimulated with anti-CD3 ([…]) and anti-CD28 (2 mg/ml) for 48 hr. PMA/ionomycin and Golgiplug were added for an additional 4 hr. Cells were harvested and analyzed for intracellular IFNγ production by flow cytometry. […] See, FIG. 17.

NOD.scid recipients = assay: Adoptive co-transfer of diabetes to NOD.scid recipients with spleen cells from WE14-immunized NOD mice; assay type: in vivo; settings: 1×10^7 WE14 SC co-transferred i.v. with 1×10^7 diabetic NOD spleen cells
Description: In another experiment, NOD mice (3-4 wks old) were immunized with WE14+IFA and 13 days later, single cell suspensions of the spleens (WE14 SC) were prepared. WE14 SC (1×10^7) were co-transferred with spleen cells obtained from a diabetic NOD mouse (1×10^7) into adult NOD.scid recipients by Intravenous (i.v.) injection. Urine glucose was monitored daily following cell transfer and hyperglycemia was confirmed by blood glucose readings.

For “RLGLWVRME [mimotope from baculovirus IA^g7-peptide library]”, the “Stimulation of T cell clone BDC-10.1 (IFNγ response), result in words” value (T cell clone BDC-10.1) was “strongly stimulated”, the “Stimulation of T cell clone BDC-10.1 (IFNγ response), result in words” value (T cell clone BDC-10.1; listed as pS3) was “maximally” and the “Stimulation of T cell clone BDC-2.5 (IFNγ response), result in words” value (T cell clone BDC-2.5) was “strongly stimulated”. For the same sequence, the “Stimulation of T cell clone BDC-2.5 (IFNγ response), result in words” value (T cell clone BDC-2.5; listed as pS3) was “maximally”, the “Stimulation of T cell clone BDC-5.10.3 (IFNγ response), result in words” value (T cell clone BDC-5.10.3) was “strongly stimulated” and the “Stimulation of T cell clone BDC-5.10.3 (IFNγ response), result in words” value (T cell clone BDC-5.10.3; listed as pS3) was “maximally”. For the same sequence, the “Response of insulin-reactive T cell clone PD-12.4.4 (IFNγ), result in words” value (T cell clone PD-12.4.4) was “not”, the “Activation of BDC-10.1 hybridoma (IL-2 production)” value [1] was “maximally activated” and the “Activation of BDC-2.5 hybridoma (IL-2 production)” value (BDC-2.5 T cell hybridoma) was “maximally activated”. For the same sequence, the “Activation of BDC-5.10.3 hybridoma (IL-2 production)” value [2] was “maximally activated”, the “IA^g7 binding, result in words” value (soluble IA^g7) was “higher affinity” and the “Binding of IA^g7-mimotope to BDC-2.5 TCR” value (BDC-2.5 TCR) was “strong ligand”.

With “WSRMDQLAKELTAE (listed as Mus musculus) [WE14, natural cleavage product of ChgA, aa 359-372]” the “Potency in activating the BDC clones, fold less potent than the pS3 mimotope” value (shortened to “Potency … fold less potent than the pS3 mimotope”) (T cell clone BDC-10.1; BDC-10.1, synthetic peptide) was “at least 1000 fold”, the “Stimulation of T cell clone BDC-10.1 (IFNγ response), result in words” value (T cell clone BDC-10.1) was “stimulated; also recorded: considerably less potent” and the “Stimulation of T cell clone BDC-10.1 (IFNγ response), result in words” value (T cell clone BDC-10.1; listed as WE-14) was “stimulated”. For the same sequence, the “Antigen response as percentage of maximal IFN-γ response [% Max]” value (T cell clone BDC-2.5; 100 mg/ml peptide, 100 mg/ml β-membrane = 100%) was roughly 15%, the “Potency … fold less potent than the pS3 mimotope” value (T cell clone BDC-2.5; BDC-2.5, synthetic peptide) was “at least 1000 fold” and the “Stimulation of T cell clone BDC-2.5 (IFNγ response), result in words” value (T cell clone BDC-2.5) was “weak stimulator; also recorded: weakly stimulated; also recorded: considerably less potent; also recorded: only very weakly”. For the same sequence, the “Stimulation of T cell clone BDC-2.5 (IFNγ response), result in words” value (T cell clone BDC-2.5; listed as WE-14) was “stimulated”, the “Potency … fold less potent than the pS3 mimotope” value (T cell clone BDC-5.10.3; BDC-5.10.3, synthetic peptide) was “at least 1000 fold” and the “Stimulation of T cell clone BDC-5.10.3 (IFNγ response), result in words” value (T cell clone BDC-5.10.3) was “stimulated; also recorded: considerably less potent”. The “Stimulation of T cell clone BDC-5.10.3 (IFNγ response), result in words” value (T cell clone BDC-5.10.3; listed as WE-14) was “stimulated”, the “IA^g7 binding, result in words” value (soluble IA^g7) was “can bind” and the “IFNγ response of the diabetogenic T cells after immunization” value (diabetogenic T cells) was “considerably reduced”. For the same sequence, the “Inflammatory response (intracellular IFNγ) of CD4+ and CD8+ T cells in lymphoid organs” value (CD4+ and CD8+ T cells) was “suppress” and the “Onset of disease induced by diabetic NOD spleen cells” value (NOD.scid recipients) was “considerably delayed”.
